Target: Metabotropic glutamate receptor 3 (Rattus norvegicus) (UniProt P31422)
Assay: PubChem AID 624028
Conditions: TREx293 mGlu3/Galpha15, calcium fluorescence, antagonist mode

Sequence of Metabotropic glutamate receptor 3 (Rattus norvegicus) (P31422 whole entry, looked up): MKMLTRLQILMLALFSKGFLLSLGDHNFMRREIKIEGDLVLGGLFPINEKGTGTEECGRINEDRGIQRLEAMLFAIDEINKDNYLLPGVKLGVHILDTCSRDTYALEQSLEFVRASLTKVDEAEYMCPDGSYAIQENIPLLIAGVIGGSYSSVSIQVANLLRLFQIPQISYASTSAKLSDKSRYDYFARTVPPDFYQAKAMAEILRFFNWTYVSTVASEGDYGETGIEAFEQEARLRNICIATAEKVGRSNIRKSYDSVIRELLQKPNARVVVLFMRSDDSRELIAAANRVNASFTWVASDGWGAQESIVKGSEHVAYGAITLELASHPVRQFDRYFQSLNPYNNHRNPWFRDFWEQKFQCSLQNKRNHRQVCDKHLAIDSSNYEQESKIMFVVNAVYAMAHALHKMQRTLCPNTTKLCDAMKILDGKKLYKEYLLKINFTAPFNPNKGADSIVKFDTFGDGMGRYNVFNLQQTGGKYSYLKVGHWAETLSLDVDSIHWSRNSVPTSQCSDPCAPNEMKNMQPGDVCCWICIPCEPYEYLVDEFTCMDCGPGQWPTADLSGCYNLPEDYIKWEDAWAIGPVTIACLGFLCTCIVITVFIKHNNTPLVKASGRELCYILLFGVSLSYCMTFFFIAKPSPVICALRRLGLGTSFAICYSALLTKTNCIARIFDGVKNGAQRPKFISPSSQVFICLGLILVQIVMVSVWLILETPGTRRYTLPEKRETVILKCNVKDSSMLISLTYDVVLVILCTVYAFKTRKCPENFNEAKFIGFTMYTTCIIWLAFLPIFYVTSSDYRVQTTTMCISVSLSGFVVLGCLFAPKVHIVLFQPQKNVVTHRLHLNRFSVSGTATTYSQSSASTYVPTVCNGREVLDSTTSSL

SMILES: COc1ccc(C#Cc2ccc(C(=O)N3CCC[C@@H](CO)C3)cc2)cc1
- IC50: 0.65 µM

Reference: PubChem BioAssay AID624028 (Vanderbilt Specialized Chemistry Center, 2012)
